Columns and labels:
Assay type in all cases: in vivo
[1] = system: ryegrass, Italian (Italian ryegrass, Lolium multiflorum); experiment: Test C postemergence, Italian ryegrass
In short: (§1)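 Ratings run from 0, meaning no effect, up to 100, meaning complete control, judged by eye against untreated plants. Treatment was a directed soil spray before emergence or a postemergence spray on 2–10 cm seedlings, with evaluation 10 or 12 days later.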

[2] = system: pigweed, palmer (palmer amaranth, Amaranthus palmeri); experiment: Test C preemergence, palmer amaranth; settings: 0 is no effect, 100 is complete control
In short: as §1

[3] = system: horseweed (Erigeron canadensis); experiment: Test C postemergence, horseweed
In short: as §1

[4] = system: goosegrass (Eleusine indica); experiment: Test C postemergence, goosegrass
In short: as §1

corn (Zea mays) [5] = experiment: Test C postemergence, corn
soybean (Glycine max) [6] = experiment: Test C postemergence, soybean
[7] = system: ryegrass, Italian (Italian ryegrass, Lolium multiflorum); experiment: Test C preemergence, Italian ryegrass; settings: 0 is no effect, 100 is complete control
In short: as §1

[8] = system: blackgrass (Alopecurus myosuroides); experiment: Test C postemergence, blackgrass; settings: 125 g ai/ha Postemergence; 0 is no effect, 100 is complete control
kochia (Bassia scoparia) [9] = experiment: Test C preemergence, kochia; settings: 0 is no effect, 100 is complete control
In short: as §1

[10] = system: ragweed (common ragweed, Ambrosia artemisiifolia); experiment: Test C postemergence, ragweed
In short: as §1

[11] = system: oat, wild (wild oat, Avena fatua); experiment: Test C preemergence, wild oat; settings: 0 is no effect, 100 is complete control
In short: as §1

[12] = system: blackgrass (Alopecurus myosuroides); experiment: Test C preemergence, blackgrass; settings: 0 is no effect, 100 is complete control
Source text: Seeds of plant species selected from blackgrass (Alopecurus myosuroides), corn (Zea mays), foxtail, giant (giant foxtail, Setaria faberi), goosegrass (Eleusine indica), kochia (Bassia scoparia), oat, wild (wild oat, Avena fatua), pigweed, palmer (palmer amaranth, Amaranthus palmeri), ragweed (common ragweed, Ambrosia artemisiifolia), ryegrass, Italian (Italian ryegrass, Lolium multiflorum), soybean (Glycine max) and wheat (Triticum aestivum) were planted into a blend of loam soil and sand and treated preemergence with a directed soil spray using test chemicals formulated in a non-phytotoxic solvent mixture which included a surfactant.
At the same time, plants selected from these crop and weed species and also galium (catchweed bedstraw, Galium aparine) and horseweed (Erigeron canadensis) were planted in pots containing the same blend of loam soil and sand and treated with postemergence applications of test chemicals formulated in the same manner. Plants ranged in height from 2 to 10 cm and were in the one- to two-leaf stage for the postemergence treatment. Treated plants and untreated controls were maintained in a greenhouse for 10 or 12 days, after which time all treated plants were compared to untreated controls and visually evaluated for injury. Plant response ratings, summarized in Table A, are based on a 0 to 100 scale where 0 is no effect and 100 is complete control. A dash (-) response means no test result.

[13] = system: barnyardgrass (Echinochloa crusgalli); experiment: Test D flooded paddy test, barnyardgrass; design: key: 0 = no effect, 100 = complete control; settings: 250 g ai/ha, Flood; applied to paddy water at 2-leaf stage; visual rating after 13 days; scale 0 (no effect) to 100 (complete control)
In short: (§2)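 Visual response scores run 0 (no effect) to 100 (complete control), judged against controls 13 days after treatment. Compounds were added to paddy water 3 cm deep over soil, around plants at the 2-leaf stage kept in a greenhouse.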

[14] = system: ragweed (common ragweed, Ambrosia artemisiifolia); experiment: Test C preemergence, ragweed; settings: 0 is no effect, 100 is complete control
In short: (§3)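 Plants grown in a sand and loam soil blend received the formulated test chemicals either as a preemergence soil-directed spray or postemergence at 2 to 10 cm height. After 10 or 12 greenhouse days, injury was assessed visually, with 100 meaning complete control.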

[15] = system: sedge, umbrella (small-flower umbrella sedge, Cyperus difformis); experiment: Test D flooded paddy test, umbrella sedge; design: key: 0 = no effect, 100 = complete control; settings: 250 g ai/ha, Flood; applied to paddy water at 2-leaf stage; visual rating after 13 days; scale 0 (no effect) to 100 (complete control)
In short: as §2

[16] = system: foxtail, giant (giant foxtail, Setaria faberi); experiment: Test C preemergence, giant foxtail; settings: 0 is no effect, 100 is complete control
In short: as §1

[17] = system: wheat (Triticum aestivum); experiment: Test C preemergence, wheat; settings: 0 is no effect, 100 is complete control
[18] = system: oat, wild (wild oat, Avena fatua); experiment: Test C postemergence, wild oat
[19] = system: foxtail, giant (giant foxtail, Setaria faberi); experiment: Test C postemergence, giant foxtail
[20] = system: galium (catchweed bedstraw, Galium aparine); experiment: Test C postemergence, galium
[21] = system: goosegrass (Eleusine indica); experiment: Test C preemergence, goosegrass; settings: 0 is no effect, 100 is complete control
In short: as §3

soybean (Glycine max) [22] = experiment: Test C preemergence, soybean; settings: 0 is no effect, 100 is complete control
In short: as §1

[23] = system: wheat (Triticum aestivum); experiment: Test C postemergence, wheat
In short: as §1

[24] = system: pigweed, palmer (palmer amaranth, Amaranthus palmeri); experiment: Test C postemergence, palmer amaranth
In short: as §1

kochia (Bassia scoparia) [25] = experiment: Test C postemergence, kochia
In short: as §1

corn (Zea mays) [26] = experiment: Test C preemergence, corn; settings: 0 is no effect, 100 is complete control
In short: as §3

[27] = system: blackgrass (Alopecurus myosuroides); experiment: Test C postemergence, blackgrass; settings: 31 g ai/ha Postemergence; visual injury, 0 to 100 scale (0 no effect, 100 complete control)
In short: as §1

rice (Oryza sativa) = experiment: Test D flooded paddy test, rice; design: key: 0 = no effect, 100 = complete control; settings: 250 g ai/ha, Flood; applied to paddy water at 2-leaf stage; visual rating after 13 days; scale 0 (no effect) to 100 (complete control)
In short: as §2

[28] = system: ducksalad (Heteranthera limosa); experiment: Test D flooded paddy test, ducksalad; design: key: 0 = no effect, 100 = complete control; settings: 250 g ai/ha, Flood; applied to paddy water at 2-leaf stage; visual rating after 13 days; scale 0 (no effect) to 100 (complete control)
In short: as §2

[29] = 31 g ai/ha Postemergence, visual injury, 0 to 100 scale (0 no effect, 100 complete control)
[30] = 125 g ai/ha Postemergence, 0 is no effect, 100 is complete control

Cc1cc(C)c(N(C(=O)OCC(C)C)S(=O)(=O)C(F)(F)F)cc1N1CCC(OC2CC2)C1=O (stereo not shown) [Compound 21]
60: Horseweed plant response rating [3, 29] | Soybean plant response rating (soybean (Glycine max) [6]; [29]) | Plant response rating (0 to 100 scale), Soybean (soybean (Glycine max) [6]; [30]) | Plant response rating (0 to 100 scale), Kochia (kochia (Bassia scoparia) [9]; 31 g ai/ha Preemergence) | Plant response rating (0 to 100 scale), Soybean (soybean (Glycine max) [22]; 125 g ai/ha Preemergence)
50: Ryegrass, Italian plant response rating [1, 29] | Plant response rating (0 to 100 scale), Wheat [23, 30]
80: Plant response rating (0 to 100 scale), Blackgrass [8] | Ragweed plant response rating [10, 29] | Plant response rating (0 to 100 scale), Blackgrass ([12]; 125 g ai/ha Preemergence) | Plant response rating (0 to 100 scale), Ragweed ([14]; 125 g ai/ha Preemergence) | Plant response rating (0 to 100 scale), Kochia (kochia (Bassia scoparia) [25]; [30])
70: Plant response rating (0 to 100 scale), Ryegrass, Italian ([7]; 31 g ai/ha Preemergence) | Plant response rating (0 to 100 scale), Oat, Wild [18, 30] | Plant response rating (0 to 100 scale), Pigweed, Palmer [24, 30] | Kochia plant response rating (kochia (Bassia scoparia) [25]; [29])
95: Plant response rating, Barnyardgrass [13]
20: Plant response rating (0 to 100 scale), Corn (corn (Zea mays) [26]; 31 g ai/ha Preemergence)
98: Plant response rating, Sedge, Umbrella [15] | Plant response rating, Ducksalad [28]
0: Plant response rating (0 to 100 scale), Soybean (soybean (Glycine max) [22]; 31 g ai/ha Preemergence)
30: Plant response rating (0 to 100 scale), Oat, Wild ([11]; 31 g ai/ha Preemergence) | Pigweed, Palmer plant response rating [24, 29]
85: Plant response rating, Rice (rice (Oryza sativa))
100: Plant response rating (0 to 100 scale), Ryegrass, Italian [1, 30] | Plant response rating (0 to 100 scale), Pigweed, Palmer ([2]; 31 g ai/ha Preemergence) | Plant response rating (0 to 100 scale), Pigweed, Palmer ([2]; 125 g ai/ha Preemergence) | Plant response rating (0 to 100 scale), Ryegrass, Italian ([7]; 125 g ai/ha Preemergence) | Plant response rating (0 to 100 scale), Foxtail, Giant ([16]; 31 g ai/ha Preemergence) | Plant response rating (0 to 100 scale), Foxtail, Giant ([16]; 125 g ai/ha Preemergence) | Galium plant response rating [20, 29] | Plant response rating (0 to 100 scale), Galium [20, 30] | Plant response rating (0 to 100 scale), Goosegrass ([21]; 125 g ai/ha Preemergence)
10: Plant response rating (0 to 100 scale), Blackgrass ([12]; 31 g ai/ha Preemergence) | Plant response rating (0 to 100 scale), Wheat ([17]; 31 g ai/ha Preemergence) | Wheat plant response rating [23, 29]
40: Plant response rating (0 to 100 scale), Ragweed ([14]; 31 g ai/ha Preemergence) | Oat, Wild plant response rating [18, 29] | Foxtail, Giant plant response rating [19, 29] | Blackgrass plant response rating [27]
90: Plant response rating (0 to 100 scale), Horseweed [3, 30] | Goosegrass plant response rating [4, 29] | Plant response rating (0 to 100 scale), Goosegrass [4, 30] | Corn plant response rating (corn (Zea mays) [5]; [29]) | Plant response rating (0 to 100 scale), Corn (corn (Zea mays) [5]; [30]) | Plant response rating (0 to 100 scale), Kochia (kochia (Bassia scoparia) [9]; 125 g ai/ha Preemergence) | Plant response rating (0 to 100 scale), Ragweed [10, 30] | Plant response rating (0 to 100 scale), Oat, Wild ([11]; 125 g ai/ha Preemergence) | Plant response rating (0 to 100 scale), Wheat ([17]; 125 g ai/ha Preemergence) | Plant response rating (0 to 100 scale), Foxtail, Giant [19, 30] | Plant response rating (0 to 100 scale), Goosegrass ([21]; 31 g ai/ha Preemergence) | Plant response rating (0 to 100 scale), Corn (corn (Zea mays) [26]; 125 g ai/ha Preemergence)

— patent US20240158348A1, “HERBICIDAL CYCLIC AMIDES N-SUBSTITUTED WITH A HALOALKYLSULFONYLANILIDE GROUP” (FMC Corporation, priority 2021, published 2024)
